These results are taken from US20240199605A1, “SMALL MOLECULAR INHIBITORS OF NF-kB INDUCING KINASE” (Janssen Pharmaceutica NV, priority 2019, published 2024).

The target in test [1] is recombinant human NF-kappaB-inducing kinase (NIK/MAP3K14) (Homo sapiens (Human), UniProt Q99558). Briefly: Inhibition of auto-phosphorylation of recombinant human NIK/MAP3K14 (AlphaScreen). Type of test: biochemical. The settings on record: NIK auto-phosphorylation, 5 μM ATP, 1 nM NIK, 2 h at 25° C.; average of values. Summed up: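 GST-tagged NIK (1 nM) auto-phosphorylated with 5 μM ATP for 2 h at 25° C. in 50 mM Tris pH 7.5, 5 mM MgCl2, 1 mM EGTA, 1 mM DTT, 0.1 mM Na3VO4, 0.01% Tween 20 (0.7% DMSO). Detected by AlphaScreen via anti-phospho-IKK Ser176/180 antibody; IC50 from sigmoidal fit of % inhibition versus log concentration.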

In test [2] the test system is p-IKKα levels in L363 (NIK translocated multiple myeloma) cells. Briefly: Effect of compounds on p-IKKα levels in L363 cells (AlphaLISA SureFire Ultra). Conditions: Homo sapiens, L-363, 6 h, BAFF stimulated, MG132, 6 h, average of values, read-out: Assay 2 IC50. Type of test: cell-based, human. An outline of the steps: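 Inhibition of p-IKKα (Ser176/180) read by AlphaLISA after 6 h, 37 °C compound exposure (11-point 1:3 series, 0.3% DMSO) of L363 cells pre-incubated overnight ± 250 ng/ml BAFF and plated ± BAFF ± 10 μM MG132. Normalised to BAFF/MG132/DMSO and unstimulated controls; IC50 by sigmoidal fitting, duplicates.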
(In general: Bead proximity is the source of the signal in Alpha formats.)

recombinant human NF-kappaB-inducing kinase (NIK/MAP3K14), sequence (Q99558 whole entry): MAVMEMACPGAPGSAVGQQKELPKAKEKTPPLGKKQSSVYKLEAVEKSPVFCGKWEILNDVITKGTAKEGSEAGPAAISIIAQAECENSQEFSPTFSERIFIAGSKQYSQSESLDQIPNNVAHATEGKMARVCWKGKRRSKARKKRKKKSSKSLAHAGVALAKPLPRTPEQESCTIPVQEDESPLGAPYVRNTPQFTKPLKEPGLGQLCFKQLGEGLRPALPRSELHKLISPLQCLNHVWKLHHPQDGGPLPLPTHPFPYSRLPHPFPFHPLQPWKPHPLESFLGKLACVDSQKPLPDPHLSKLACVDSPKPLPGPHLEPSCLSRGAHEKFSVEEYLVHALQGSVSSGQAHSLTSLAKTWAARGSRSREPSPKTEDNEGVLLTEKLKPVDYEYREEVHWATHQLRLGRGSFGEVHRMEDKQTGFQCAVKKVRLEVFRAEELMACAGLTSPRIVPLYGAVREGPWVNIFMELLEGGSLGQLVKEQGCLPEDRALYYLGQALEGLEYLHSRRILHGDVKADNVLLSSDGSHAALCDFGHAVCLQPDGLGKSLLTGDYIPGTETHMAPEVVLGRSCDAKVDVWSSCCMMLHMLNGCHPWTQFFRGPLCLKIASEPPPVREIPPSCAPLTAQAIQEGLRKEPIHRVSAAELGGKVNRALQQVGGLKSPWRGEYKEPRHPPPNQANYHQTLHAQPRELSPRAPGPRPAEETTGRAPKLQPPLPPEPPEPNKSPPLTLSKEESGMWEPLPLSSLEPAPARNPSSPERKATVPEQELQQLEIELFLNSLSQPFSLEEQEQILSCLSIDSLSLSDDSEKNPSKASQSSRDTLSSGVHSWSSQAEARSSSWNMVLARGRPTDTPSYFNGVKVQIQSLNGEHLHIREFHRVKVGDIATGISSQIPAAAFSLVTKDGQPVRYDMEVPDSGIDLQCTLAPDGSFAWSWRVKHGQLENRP

By IC50 is commonly meant the point on the concentration scale where inhibition reaches its midpoint. Consider `CN1CC[C@@](O)(C#Cc2cccc(-c3ccc4nc(C5CC5)nc(N)c4n3)c2)C1=O` [Example 175, (R)-3-((3-(4-Amino-2-cyclopropylpyrido[3,2-d]pyrimidin-6-yl)phenyl)ethynyl)-3-hydroxy-1-methylpyrrolidin-2-one], for which the 50% inhibitory concentration (IC50) in test [1] was 0.0024 µM; in test [2], 0.23 µM.
The matching figures for `CN1CC[C@@](O)(C#Cc2cccc(-c3nc(C(F)(F)F)c4ccnc(N)c4n3)c2)C1=O` [Example 38, (R)-3-((3-(8-Amino-4-(trifluoromethyl)pyrido[3,4-d]pyrimidin-2-yl)phenyl)ethynyl)-3-hydroxy-1-methylpyrrolidin-2-one]: 0.0007 µM and 0.04 µM.
For the compound `Cc1nc(N)c2nc(-c3cccc(C#C[C@]4(O)C(=O)N(C)C[C@H]4C)c3)ccc2n1` (stereo in doubt) [Example 294, (3S,4R*)-3-((3-(4-Amino-2-methylpyrido[3,2-d]pyrimidin-6-yl)phenyl)ethynyl)-3-hydroxy-1,4-dimethylpyrrolidin-2-one], the IC50 in test [1] worked out at 0.39 µM; in test [2] it was 2.46 µM.
On to `CN1CC[C@@](O)(C#Cc2cccc(-c3ccc4nc(O)nc(N)c4n3)c2)C1=O` [Example 211, (R)-3-((3-(4-Amino-2-hydroxypyrido[3,2-d]pyrimidin-6-yl)phenyl)ethynyl)-3-hydroxy-1-methylpyrrolidin-2-one], for which the 50% inhibitory concentration (IC50) was 0.0022 µM in test [1] and greater than 5 µM in test [2].
In the case of `Cc1nc(N)c2nc(-c3cccc(C#C[C@@](C)(O)c4cnc(C)s4)c3)ccc2n1` [Example 158, (R)-4-(3-(4-Amino-2-methylpyrido[3,2-d]pyrimidin-6-yl)phenyl)-2-(2-methylthiazol-5-yl)but-3-yn-2-ol], the half-maximal inhibitory concentration (IC50) in test [1] is 1.93 µM; in test [2] it was greater than 5 µM.
On the same counts, the results for `Cc1cc([C@](C)(O)C#Cc2cccc(-c3ccc4ncnc(N)c4c3)c2)no1` [Example 104, (R)-4-[3-(4-Aminoquinazolin-6-yl)phenyl]-2-(5-methylisoxazol-3-yl)but-3-yn-2-ol] are 0.0013 µM and 0.28 µM.
As for `CN1CC[C@@](O)(C#Cc2cccc(-c3ccc4ncnc(N5CC(C#N)C5)c4n3)c2)C1=O` [Example 242, (R)-1-(6-(3-((3-Hydroxy-1-methyl-2-oxopyrrolidin-3-yl)ethynyl)phenyl)pyrido[3,2-d]pyrimidin-4-yl)azetidine-3-carbonitrile], the IC50 in test [1] came to 0.0074 µM; in test [2], 0.32 µM.
As for `CN1CC[C@@](O)(C#Cc2cccc(-c3ncc4c(-c5cn[nH]c5)cnc(N)c4n3)c2)C1=O` [Example 124, (R)-3-[2-[3-[8-Amino-5-(1H-pyrazol-4-yl)pyrido[3,4-d]pyrimidin-2-yl]phenyl]ethynyl]-3-hydroxy-1-methyl-pyrrolidin-2-one], the IC50 is no more than 0.0005 µM in test [1] and 0.0077 µM in test [2].
With `CN1CC[C@@](O)(C#Cc2cccc(-c3cc(N4CCC4)c4ncnc(N)c4n3)c2)C1=O` [Example 316, (R)-3-[2-[3-[4-Amino-8-(azetidin-1-yl)pyrido[3,2-d]pyrimidin-6-yl]phenyl]ethynyl]-3-hydroxy-1-methyl-pyrrolidin-2-one], the IC50 turned out to be 0.0009 µM in test [1] and 0.0095 µM in test [2].
On the same counts, the results for `Cc1ccc(C#C[C@]2(O)CCc3cccnc32)cc1-c1ncc2ccnc(N)c2n1` [Example 75, (R)-7-((3-(8-Aminopyrido[3,4-d]pyrimidin-2-yl)-4-methylphenyl)ethynyl)-6,7-dihydro-5H-cyclopenta[b]pyridin-7-ol] are 0.0013 µM and 0.084 µM.
As to `[2H]C([2H])([2H])N1CC[C@@](O)(C#Cc2ccc(C)c(-c3nc4c(N)ncnc4s3)c2)C1=O` [Example 216, (R)-3-[2-[3-(7-Aminothiazolo[5,4-d]pyrimidin-2-yl)-4-methyl-phenyl]ethynyl]-3-hydroxy-1-(trideuteriomethyl)pyrrolidin-2-one], the IC50 in test [1] is no more than 0.0005 µM; in test [2], 0.0085 µM.
With `Cc1nc(-c2cccc(C#C[C@@](C)(O)c3nccs3)c2)nc2c(N)nccc12` [Example 48, (R)-4-(3-(8-Amino-4-methylpyrido[3,4-d]pyrimidin-2-yl)phenyl)-2-(thiazol-2-yl)but-3-yn-2-ol], the results for the IC50 in test [1] and in test [2] were no more than 0.0005 µM and 0.016 µM, respectively.
As for `Cc1nc(N)c2nc(-c3cccc(C#C[C@](C)(O)c4ccccn4)c3)ccc2n1` [Example 191, (S)-4-[3-(4-Amino-2-methyl-pyrido[3,2-d]pyrimidin-6-yl)phenyl]-2-(2-pyridyl)but-3-yn-2-ol], the values for the half-maximal inhibitory concentration (IC50) in test [1] and in test [2] were 0.015 µM and 2.98 µM, respectively.
For the compound `Cc1cc([C@](C)(O)C#Cc2cccc(-c3ccc4ccnc(N)c4n3)c2)no1` [Example 89, (R)-4-[3-(8-Amino-1,7-naphthyridin-2-yl)phenyl]-2-(5-methylisoxazol-3-yl)but-3-yn-2-ol], the values for the IC50 in test [1] and in test [2] were 0.0023 µM and 0.59 µM, respectively.
As to `Cc1cc(-c2cccc(C#C[C@]3(O)CCN(C)C3=O)c2)cc2c(N)ncnc12` [Example 110, (R)-3-((3-(4-Amino-8-methylquinazolin-6-yl)phenyl)ethynyl)-3-hydroxy-1-methylpyrrolidin-2-one], the IC50 in test [1] is no more than 0.0005 µM; in test [2], 0.011 µM.
Turning to `CN1CC[C@@](O)(C#Cc2cccc(-c3ncc4c(Br)cnc(N)c4n3)c2)C1=O` [Example 94, (R)-3-((3-(8-Amino-5-bromopyrido[3,4-d]pyrimidin-2-yl)phenyl)ethynyl)-3-hydroxy-1-methylpyrrolidin-2-one], the IC50 in test [1] is no more than 0.0005 µM; in test [2] it was 0.0042 µM.
As for `CN1CC[C@@](O)(C#Cc2cccc(-c3ncc4ccnc(N5CCC5)c4n3)c2)C1=O` [Example 247, (R)-3-((3-(8-(Azetidin-1-yl)pyrido[3,4-d]pyrimidin-2-yl)phenyl)ethynyl)-3-hydroxy-1-methylpyrrolidin-2-one], the IC50 is 0.85 µM in test [1] and greater than 5 µM in test [2].
The matching figures for `Cc1ccc(C#C[C@@](C)(O)c2nccs2)cc1-c1ccc2ccnc(N)c2c1` [Example 68, (R)-4-[3-(1-Amino-7-isoquinolyl)-4-methyl-phenyl]-2-thiazol-2-yl-but-3-yn-2-ol]: 0.055 µM and greater than 5 µM.
In the case of `CN1CC[C@@](O)(C#Cc2cccc(-c3ccc4ncnc(N5CCC5)c4c3)c2)C1=O` [Example 243, (R)-3-((3-(4-(Azetidin-1-yl)quinazolin-6-yl)phenyl)ethynyl)-3-hydroxy-1-methylpyrrolidin-2-one], the IC50 in test [1] was found to be 0.014 µM; in test [2], 0.67 µM.
`Cc1ccc(C#C[C@]2(O)CCn3ccnc32)cc1-c1nc2c(N)ncnc2s1` [Example 183, (R)-7-[2-[3-(7-Aminothiazolo[5,4-d]pyrimidin-2-yl)-4-methyl-phenyl]ethynyl]-5,6-dihydropyrrolo[1,2-a]imidazol-7-ol]: the IC50 is no more than 0.0005 µM in test [1] and 0.0066 µM in test [2].
As to `Cc1nc(N)c2nc(-c3cccc(C#C[C@@]4(O)C[C@@H](C)N(C)C4=O)c3)ccc2n1` [Example 267, (3S,5R)-3-((3-(4-Amino-2-methylpyrido[3,2-d]pyrimidin-6-yl)phenyl)ethynyl)-3-hydroxy-1,5-dimethylpyrrolidin-2-one], the values for the IC50 in test [1] and in test [2] were 0.385 µM and 2.83 µM, respectively.
